Laboratory results from patent US20220183287A1, “METHODS FOR KILLING PESTS” (The United States of America, as represented by the …, priority 2020, published 2022).

Key:
[1] = test system: cucumber (Cucumis sativus) plants; test: Greenhouse trial: cucumber plant vigor in treated soil; conditions: for Root weight Trials 1 & 2: 27-28 ml per 300 grams soil; for Shoot fresh weight Trial 1 / Shoot height Trial 1: 27 ml per 300 grams soil; for Shoot fresh weight Trial 2 / Shoot height Trial 2: 28 ml per 300 grams soil
Experimental: Greenhouse trials: Selected compounds and combinations were tested for effects on plant growth and on numbers of galls produced by M. incognita infecting cucumber (Cucumis sativus) plants in pots. Cucumber “Sweet Slice” seeds were planted in ProMix in 6-pack cell trays. Treatments were mixed into loamy sand at 27 ml (Trial 1) and 28 ml (Trial 2) per 300 grams soil. Meloidogyne incognita eggs were mixed into soil for a final inoculum of 5,000 per pot. Each pot received 300 grams soil per treatment, with 4 replicates per treatment in each of two trials. Pots were covered with black plastic and periodically watered to keep the soil moist. Two weeks later, one 14-day old cucumber seedling was transplanted into each pot. Two weeks after transplant, the plants were harvested. Root and shoot measurements were recorded and root galls were counted.
Statistical analyses: The data were analyzed as either a general linear model using JMP or a generalized linear model for the best distribution to fit the residual using Proc Glimmix (Sas Institute). The assumptions of the model were checked. If not met, then appropriate statistical techniques were used so that data could met the assumptions of the models. In Sas, mean comparisons were done with Sidak adjusted p-values to hold the experiment-wise error at 0.05. As indicated in the footnote to Table 5, an analysis from greenhouse trials was conducted with JMP using a Wilcoxon test with each pair nonparametric multiple comparisons (P≤0.05).
Table 5 legend: a) treatments were added at a rate of 27 ml (Trial 1) and 28 ml (Trial 2) per 300 grams soil. Four replicate pots, each containing 300 grams soil, were used per treatment in each trial. Meloidogyne incognita was mixed into soil for a final inoculum of 5,000 eggs per pot. Two weeks after soil treatment, one 14-day old cucumber seedling was transplanted into each pot. […] Untransformed data are presented to show actual numbers on roots; e) compounds differ from each other in number of carbons of aliphatic ester moiety. The number of carbons is indicated in parentheses.

[2] = test system: M. incognita juveniles; conditions: MB isolated from Buddleja crispa; laboratory assays; cited from earlier work

| SMILES | Root weight Trials 1 & 2 ([1]; 0.05%) | Shoot fresh weight Trial 1 ([1]; 0.05%) | Shoot height Trial 1 ([1]; 0.05%) | Shoot fresh weight Trial 2 ([1]; 0.05%) | Shoot height Trial 2 ([1]; 0.05%) | Root weight Trials 1 & 2 ([1]; 0.1%) | Shoot fresh weight Trial 1 ([1]; 0.1%) | Shoot height Trial 1 ([1]; 0.1%) | Shoot fresh weight Trial 2 ([1]; 0.1%) | Shoot height Trial 2 ([1]; 0.1%) | nematocidal activity [2] |
| --- | --- | --- | --- | --- | --- | --- | --- | --- | --- | --- | --- |
| CCOC(=O)c1ccccc1 [EB, Ethyl benzoate] | 3.2 ^ab g | 2.8 ^a g | 7.1 ^ab cm | 4.7 ^a g | 7.5 ^a cm | 3.1 ^ab g | 3.0 ^a g | 6.4 ^b cm | 4.0 ^ab g | 8.1 ^a cm | – |
| COC(=O)c1cccc(C)c1 [M3MB, Methyl 3-methylbenzoate] | 3.3 ^a g | 3.3 ^a g | 6.8 ^ab cm | 4.3 ^ab g | 7.9 ^a cm | – | 3.2 ^a g | 6.9 ^ab cm | 3.6 ^ab g | 7.2 ^a cm | – |
| COC(=O)c1ccccc1 [MB, Methyl benzoate] | 3.0 ^ab g | 3.2 ^a g | 7.7 ^ab cm | 3.9 ^ab g | 8.0 ^a cm | 2.9 ^ab g | 3.0 ^a g | 7.2 ^ab cm | 4.0 ^ab g | 8.3 ^a cm | demonstrated nematocidal activity |
| C=COC(=O)c1ccccc1 [VB, Vinyl benzoate] | 3.1 ^ab g | 3.2 ^a g | 6.7 ^ab cm | 4.3 ^ab g | 8.3 ^a cm | – | 3.0 ^a g | 7.2 ^ab cm | 3.1 ^b g | 6.8 ^a cm | – |
